Data on 7 molecules can be found in patent US7378111B2, “Regulation of GSK-3α activity for the treatment or prevention of Alzheimer's disease” (The Trustees of the University of Pennsylvania, priority 2002, dated 2008).

In data set [1] the test system is Aβ40 and Aβ42 production in CHO-APP695 cells. As to the kind of experiment: Secreted Aβ40 and Aβ42 from CHO-APP695 cells, sandwich ELISA normalized to intracellular full-length APP. The format is cell-based, Chinese hamster. The protocol: To investigate the role of GSK-3 in the production of peptides Aβ40 and Aβ42, Chinese hamster ovary (CHO) cells stably expressing APP (CHO-APP695) were treated with lithium chloride (LiCl), which is a direct inhibitor of GSK-3α and β (Phiel et al., 2001). CHO695 cells (available commercially, e.g., American Type Culture Collection (ATCC), Manassas, Va.) were maintained in culture in MEMα+5% fetal bovine serum (FBS) (e.g., BioWhittaker, Walkersville, Md.) with added penicillin/streptomycin and glutamine. Stocks of lithium chloride were prepared in sterile water. To quantify the Aβ40 and Aβ42 secretion following treatment with LiCl, the CHO-APP695 cells were plated in 6-well dishes at a density of 5×10^5 cells per well. LiCl was added to the cells in fresh medium, and media and cells were collected 24 hours later. Aβ determinations from the media were made by sandwich ELISA in femtomoles using the method of Suzuki et al., Science 264:1336-1340 (1994).
For comparison purposes, the results were normalized to levels of intracellular full-length APP. APP levels were quantified by SDS-PAGE followed by western immunoblotting with the amino-terminal APP antibody Karen (Turner et al., J. Biol. Chem. 271:8966-8970 (1996)), and visualized using ^125I-labelled secondary antibodies by Phosphorlmager analysis and ImageQuant software (Amersham Biosciences Corp, Piscataway, N.J.).
Stocks of kenpaullone (Calbiochem, La Jolla, Calif.) were prepared in DMSO. Secreted labeled Aβ secreted from CHO-APP695 cells was obtained as described in the preceding examples. Drugs were added to fresh medium, and medium and cells were collected, as described above, 24 hours later. Immunoprecipitates from the medium were SDS-PAGE separated and Phosphorlmager visualized.
Stocks of roscovitine (Calbiochem) were prepared in DMSO.
(An ELISA detects its analyte on a solid surface through an enzyme-linked reagent.)

Another data set relates to GSK-3β. As to the kind of experiment: siRNA knock-down, GSK-3β protein by western blot in CHO-APP695 cells. The format is cell-based, Chinese hamster. Particulars: siRNA 25 nM, harvested 48 hours after transfection. As for the experimental part: (§1) CHO-APP695 cells were transfected with short interfering RNAs (siRNAs) directed against GSK-3α and GSK-3β as follows. RNA oligonucleotides were synthesized by Dharmacon, Inc. (Lafayette, Colo.) Sequences used were:
(§2) The dsRNA was produced using conditions described in Elbashir et al., 2001, supra. The siRNA was transfected into the CHO-APP695 cells plated in 6-well dishes using GenePORTER transfection reagent. The siRNA (25 nM) was co-transfected with 2 μg plasmid DNA. The siRNA against pGL3-luciferase (Pp-Luc) represents control transfection. […] Following transfection, the cells were cultured and harvested 48 hours later. GSK-3α and GSK-3β protein levels were examined using an antibody that recognized both GSK-3 isoforms (Calbiochem), and western blotted as above.

The test system of data set [2] is Aβ40 and Aβ42 production in CHO-APP695 cells. The data set is described as follows: Aβ levels secreted from siRNA transfected CHO-APP695 cells. The format is cell-based, Chinese hamster. The conditions noted are these: siRNA 25 nM, 48 hours. The protocol:
as §2
As graphically presented in FIG. 3b, Aβ levels (Aβ40 shown in light bars; […] shown in dark bars) secreted from siRNA and transfected cells in a representative experiment, were assessed as in FIG. 1. Error bars represent standard deviation. The experiment was repeated six times with similar results. As a result, the selective reduction of GSK-3 a protein decreased Aβ40 and Aβ42 levels by 45% and 43%, respectively (FIG. 3b). Asterisks indicate a significant difference from control, as determined by one-way ANOVA (p<0.05).

Another data set deals with GSK-3α. The data set is described as follows: siRNA knock-down, GSK-3α protein by western blot in CHO-APP695 cells. In kind it is cell-based, Chinese hamster. As for the experimental part:
as §1, §2
(Immunoblotting shows a protein as a band on a membrane.)

Data set [3] has as its system γ-secretase cleavage of APP in CHO-APP695 cells. The data set is described as follows: 35S-methionine labeling, immunoprecipitation and SDS-PAGE of secreted Aβ, APP holoprotein and APP C-terminal fragments. The conditions noted are these: 5 mM LiCl or 100 μM DFK-167 for 24 hours. In kind it is cell-based, Chinese hamster. The protocol:
To visualize the APP fragments, CHO695 cells plated on 6-well dishes were methionine-deprived for 30 minutes by incubation in methionine-free DMEM (Life Technologies, Inc., Grand Island, N.Y.) before adding 500 μCi ^35S-methionine (Perkin Elmer Life Sciences, Inc., Boston Mass.) per ml of DMEM with 5% dialyzed FBS (Invitrogen) and mg/ml L-proline for 2.5 hours. Medium was collected and cells (2 wells/sample) were rinsed twice with PBS (phosphate buffered saline), then scraped into RIPA buffer (a standard immunoprecipitation buffer, see, Harlow and Lane (eds.), In Antibodies: a laboratory manual, Cold Spring Harbor Laboratory Press, NY (1988)). Lysates were sonicated and centrifuged at 100,000×g for 20 minutes. Using protein A/G agarose beads (Santa Cruz Biotechnologies, Santa Cruz, Calif.), media was immunoprecipitated with the antibody BAN-50 (Suzuki et al., 1994) that recognizes Aβ amino acids 1-10, and cell lysates were immunoprecipitated with antibody 2493 (Lee et al., J. Biol. Chem. 278:[…] (2003)), which is a rabbit polyclonal antibody that recognizes the C-terminus of APP. Proteins were resolved by electrophoresis on 10/16% step gradient Tris-tricine polyacrylamide gels. Gels were fixed in 50% methanol+5% glycerol, dried, and exposed to a Phosphorlmager screen. […]

Data set [4] concerns GSK-3. The data set is described as follows: β-catenin protein accumulation by western blot in CHO-APP695 cells. The format is cell-based, Chinese hamster. Particulars: kenpaullone 0.5, 2.0, 5.0 μM; LiCl 0.5, 2.0, 5.0 mM; FIG. 2b. As for the experimental part: This was confirmed by western blot, in CHO-APP695 cells treated with kenpaullone (tested at concentrations of 0.5 μM, 2.0 μM and 5.0 μM, respectively) or lithium (0.5 mM, 2.0 mM and 5.0 mM LiCl) as shown in FIG. 2b. Roscovitine was added as a control (tested at concentrations of 0.5 μM, 2.0 μM and 5.0 μM, respectively) in FIG. 2b, as had been in the study summarized in FIG. 2a. A western blot for actin is was used as a loading control (see FIG. 2b).

Data set [5] relates to GSK-3. The data set is described as follows: β-catenin/Tcf-dependent luciferase reporter (OT-Luc / Lef-OT) in CHO-APP695 cells. The conditions noted are these: FIG. 2c. The format is cell-based, Chinese hamster. More on the design: dose or concentration left out as unconfirmed. The protocol:
CHO-APP695 cells were transfected with a β-catenin-responsive reporter construct, OT-luciferase (OT-Luc) (shown in FIG. 2c as light bars), or a mutated reporter, OF-luciferase (OF-Luc) (shown in FIG. 2c as dark bars). OT-luciferase was provided by K. Kinzler and B Vogelstein.
After transfection, cells were treated with lithium (at concentrations of 0.5 mM, 2.0 mM and 5 mM LiCl, respectively), kenpaullone (at concentrations of […]) or roscovitine (at concentrations of […]) for 24 hours. Cells were harvested and luciferase assays performed.

Data set [6] concerns cyclin-dependent kinases (cdks). The conditions noted are these: in vitro; cited from earlier work.

Numbered stars: 1 amine (or outer) side, 2 acyl side, 3 side chain; on linkers, the order of the positions; unused ones are H or OH. Square brackets hold non-standard residues; d marks the D form. Peptide text beside a SMILES is read from it. * marks the point of attachment. X1 = CC(N[*:1])C(=O)C(F)(F)C(=O)[*:2]; Boc = CC(C)(C)OC(=O)*

In the case of `[Cl-].[Na+]` [NaCl, sodium chloride], the “effect on APP processing” value in data set [1] (24 hours, FIG. 1a) is “no effect”.
Take “GSK-3β directed siRNA: dsRNA of SEQ ID NO:3 (sense) and SEQ ID NO:4 (antisense) directed against GSK-3β (sense AUCUUUGGAGCCACUGAUU; antisense AAUCAGUGGCUCCAAAGAU; listed as RNA, chemistry not fully specified)”: the GSK-3β protein level entry in the data set on GSK-3β was “selectively reduces”. For the same molecule, the “levels of secreted Aβ40 and Aβ42” value in data set [2] was “modest increase”.
For “GSK-3α siRNA: dsRNA of SEQ ID NO:5 (sense) and SEQ ID NO:6 (antisense) directed against GSK-3α (sense UUCUACUCCAGUGGUGAGA; antisense UCUCACCACUGGAGUAGAA; listed as RNA, chemistry not fully specified)”, the GSK-3α protein level result in the data set with GSK-3α (siRNA 25 nM, harvested 48 hours after transfection) was “selectively reduces”. Moreover, in data set [2] (FIG. 3b), the “decrease of secreted Aβ40 level” value was 45% and the “decrease of secreted Aβ42 level” value was found to be 43%.
As for `CC[C@H](CO)Nc1nc(NCc2ccccc2)c2ncn(C(C)C)c2n1` [roscovitine], in data set [1] (2.0 μM and 5.0 μM, FIG. 2a), the “effect on Aβ40 and Aβ42” value was “no effect”.
As for `CCC(C)C(NC(=O)C(NC(=O)OC(C)(C)C)C(C)C)C(=O)NC(C)C(=O)C(F)(F)C(=O)NC(C(=O)NC(C(=O)OC)C(C)CC)C(C)C` (stereo not drawn) [DFK-167] (Boc-VI[X1]VI-OMe; configuration not given here), the “steady-state levels of secreted Aβ peptides” value in data set [3] (FIG. 1b) is given as “dramatically reduce”. The “accumulation of APP C-terminal fragments (CTFs)” value in data set [3] (FIG. 1c) is on record as “accumulation of APP CTFs”.
“control siRNA: siRNA against pGL3-luciferase (Pp-Luc), SEQ ID NO:1 and 2, control transfection (chain 1 CUUACGCUGAGUACUUCGA; chain 2 UCGAAGUACUCAGCGUAAG; listed as RNA, chemistry not fully specified)”: in the data set on GSK-3α (control siRNA, both GSK-3 isoforms, FIG. 3a), the GSK-3 expression result is given as “no effect”.
Take `O=C1Cc2c([nH]c3ccc(Br)cc23)-c2ccccc2N1` [kenpaullone]: the “reduction of Aβ40 and Aβ42 secretion” value in data set [1] (2.0 μM, 24 hours) is 50%; in data set [1] (5.0 μM, 24 hours) it was “greater than 90%”. Further, the “accumulation of β-catenin protein (GSK-3 inhibition in cells)” value in the data set with GSK-3 [4] is on record as “accumulation of β-catenin protein”. For the same molecule, the “activation of β-catenin/Tcf-dependent reporter Lef-OT” value in the data set with GSK-3 [5] is given as “activation”. Also, the “concentration needed for cdk inhibition relative to GSK-3 inhibition” value in data set [6] is recorded as “at least 20 fold”.
